Data from patent US20190298718A1, “DOSING REGIMEN” (Cyclacel Limited, priority 2017, published 2019).
pIC50: −log10 of the molar value. Read-outs that look alike come from different tables or passages of the source.

Columns and labels:
[1] = tested on: AML cell lines; assay: Combination of CNDAC with hypomethylating agents in AML cell lines; type: cell-based; conditions: more apparent if cells are treated with hypomethylating agents first
Method: Previous studies by the applicant have shown that in AML cell lines, the active metabolite of sapacitabine, CNDAC, is synergistic with hypomethylating agents and the synergy is more apparent if cells are treated with hypomethylating agents first. The present invention relates to the identification of new and previously undefined subgroups of AML patients for which treatment with an alternating regimen of sapacitabine and decitabine is particularly effective.

[2] = tested on: colon cancer; conditions: model of colon cancer; cited from earlier work
[3] = phase I, patients with a variety of cancers; cited from earlier work
[4] = tested on: acute myeloid leukemia (AML); type: in vivo, human
Method: WBC count can be determined, by any suitable institutional standard protocol. By way of example, suitable methods are described in Blumenreich [Reference 12] or Shafer [Reference 13], the contents of which are incorporated by reference.
SWOG classification was determined according to the criteria set out in Table 6 (Slovak et al, Reference 1; the contents of which are incorporated by reference). Cytogenetic testing can be carried out on peripheral blood, for example, in accordance with the standard methodology set forth in Slovak et al [Reference 1] or on bone marrow. Karyotyping or routine cytogenetic analysis involves the examination of chromosomes to identify structural abnormalities. Conventional cytogenetics (karyotyping) is the standard cytogenetic analysis for identifying gross chromosomal abnormalities: aneuploidies & structural (gain/loss, rearrangement). Chromosomes of a dividing human cell can be analysed clearly in white blood cells, specifically T lymphocytes, which are easily collected from blood. Cells from other tissues such as bone marrow, amniotic fluid, and other tissues can also be cultured for cytogenetic analysis. Cells from bone marrow are cultured for several days. Chromosomes in the growing and dividing cells are then fixed, spread on microscope slides, and stained to allow each of the chromosomes to be individually identified. Cytogenetic study was performed using the standard G-banding method (Reference 22, the contents of which are incorporated by reference). […] Findings based on the FISH technique were used as considered supportive information (FISH analysis is based on probes directed to specific chromosomal regions (molecular cytogenetics)) (Reference 22).

[5] = tested on: cell line that is resistant to cytarabine; conditions: cited from earlier work
[6] = Antecedent MDS/MPN No and WBC ≥10,000
[7] = Antecedent MDS/MPN Yes and WBC <10,000
[8] = SWOG Not unfavourable and WBC <10,000
[9] = SWOG Unfavourable and WBC ≥10,000

N#C[C@H]1[C@H](O)[C@@H](CO)O[C@H]1n1ccc(N)nc1=O [CNDAC, 2′-C-cyano-2′-deoxy-1-β-D-arabino-pentofuranosyl cytosine]
interaction with hypomethylating agents [1]: synergistic

CCCCCCCCCCCCCCCC(=O)Nc1ccn([C@@H]2O[C@H](CO)[C@@H](O)[C@@H]2C#N)c(=O)n1 [(I), 1-(2-C-cyano-2-deoxy-β-D-arabino-pentofuranosyl)-N^4-palmitoyl cytosine]
anticancer activity [2]: strong
increasing survival and preventing the spread of colon cancer metastases to the liver, compared with gemcitabine or 5-FU [2]: superior
dose-limiting toxicity [3]: myelosuppression
tolerability [3]: well tolerated

Nc1ncn([C@H]2C[C@H](O)[C@@H](CO)O2)c(=O)n1 [Decitabine, 4-amino-1-(2-deoxy-β-D-erythro-pentofuranosyl)-1,3,5-triazin-2(1H)-one]
1-year survival (%) [4, 6]: 36.7%
Median overall survival months [4, 6]: 5.5 months
1-year survival (%) [4, 7]: 27.5%
CR rate (%) [4, 7]: 2.5%
Median overall survival months [4, 7]: 4.9 months
1-year survival (%) ([4]; Antecedent MDS/MPN: No): 35.5%
Median overall survival months ([4]; Antecedent MDS/MPN: No): 6.7 months
1-year survival (%) ([4]; Antecedent MDS/MPN: Yes): 32.9%
CR median duration, months ([4]; Antecedent MDS/MPN: Yes): 7.1 months
CR rate (%) ([4]; Antecedent MDS/MPN: Yes): 5.7%
Median overall survival months ([4]; Antecedent MDS/MPN: Yes): 5.0 months
1-year survival (%) [4, 8]: 31.8%
CR rate (%) [4, 8]: 5.7%
Median overall survival months [4, 8]: 5.6 months
1-year survival (%) [4, 9]: 30.0%
CR rate (%) [4, 9]: 0%
Median overall survival months [4, 9]: 3.0 months
1-year survival (%) ([4]; SWOG category Not Unfavourable): 35.9%
Median overall survival months ([4]; SWOG category Not Unfavourable): 5.7 months
1-year survival (%) ([4]; SWOG category Unfavourable): 33.0%
CR rate (%) ([4]; SWOG category Unfavourable): 9.6%
Median overall survival months ([4]; SWOG category Unfavourable): 5.7 months
Median overall survival ([4]; all randomized patients (n=241 per arm)): 5.7 months
Patients aged 80 and over, median overall survival, months ([4]; patients aged 80 and over with <10,000 WBC): 4.2 months
1-year survival (%) ([4]; patients with <10,000 WBC): 32.9%
CR rate (%) ([4]; patients with <10,000 WBC): 8.6%
Median overall survival months ([4]; patients with <10,000 WBC): 5.8 months
1-year survival (%) ([4]; patients with ≥10,000 WBC): 38.5%
Median overall survival months ([4]; patients with ≥10,000 WBC): 5.5 months

Nc1ccn([C@@H]2O[C@H](CO)[C@@H](O)[C@@H]2O)c(=O)n1 [cytarabine]
pIC50 ([5]; after 5-azacitidine (upregulation of dCK)): 6.26
pIC50 ([5]; before 5-azacitidine): 4.90
